Assay results published in PubChem BioAssay AID1963441 (Molecular Pharmacology Branch, DTP, NCI, 2024).

Tested on: NCI-H1876 complex spheroid growth, % test/control
Experiment: Anticancer human tumor NCI-H1876 cell line growth inhibition [Asc];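 note: compound exposure lasted 7 days starting three days after seeding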;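 for viability, T/C: 100% = DMSO vehicle control wells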
Details: for IC50: curve of first compound; for viability, T/C: stronger effect = lower value
Outline: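 Spheroid model: tumor line + HUVEC + hMSC. Single agents and combinations; top conc. at/near clinical Cmax (10 microM if undetermined), half-log dilutions. DMSO stocks at 800-fold test concentration.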

Compound: C=C(F)C(=O)N1CCN(c2nc(OCC3CCCN3C)nc3c2CCN(c2cccc4cccc(Cl)c24)C3)CC1CC#N (centres undefined) + Cc1c(S(C)(=O)=O)c(-c2cc(F)cc(N3CCN(c4ccc(NS(=O)(=O)c5ccc(NC(CCN6CCC(C(=O)OCCCP(=O)(O)O)CC6)CSc6ccccc6)c(S(=O)(=O)C(F)(F)F)c5)cc4)CC3)c2)c(-c2ccc(Cl)cc2)n1C(C)C
- IC50 (second compound 0.0316 µM): 5.7 µM
- IC50 (second compound 0.1 µM): 5.38 µM
- IC50 (second compound 0.316 µM): 5.65 µM
- IC50 (second compound 1 µM): 5.54 µM
- IC50 (second compound 3.16 µM): 5.15 µM
- IC50 (second compound 10 µM): 5.43 µM
- viability, T/C (second compound 0.0316 µM, first compound 0.0316 µM): 96.7%
- viability, T/C (second compound 0.0316 µM, first compound 0.1 µM): 97.8%
- viability, T/C (second compound 0.0316 µM, first compound 0.316 µM): 102%
- viability, T/C (second compound 0.0316 µM, first compound 1 µM): 90.5%
- viability, T/C (second compound 0.0316 µM, first compound 3.16 µM): 97.5%
- viability, T/C (second compound 0.0316 µM, first compound 10 µM): 5.25%
- viability, T/C (second compound 0.1 µM, first compound 0.0316 µM): 83.6%
- viability, T/C (second compound 0.1 µM, first compound 0.1 µM): 86.1%
- viability, T/C (second compound 0.1 µM, first compound 0.316 µM): 91.9%
- viability, T/C (second compound 0.1 µM, first compound 1 µM): 94%
- viability, T/C (second compound 0.1 µM, first compound 3.16 µM): 98.1%
- viability, T/C (second compound 0.1 µM, first compound 10 µM): 2.68%
- viability, T/C (second compound 0.316 µM, first compound 0.0316 µM): 104%
- viability, T/C (second compound 0.316 µM, first compound 0.1 µM): 94.9%
- viability, T/C (second compound 0.316 µM, first compound 0.316 µM): 96.5%
- viability, T/C (second compound 0.316 µM, first compound 1 µM): 98.8%
- viability, T/C (second compound 0.316 µM, first compound 3.16 µM): 102%
- viability, T/C (second compound 0.316 µM, first compound 10 µM): 1.38%
- viability, T/C (second compound 1 µM, first compound 0.0316 µM): 91.5%
- viability, T/C (second compound 1 µM, first compound 0.1 µM): 97.1%
- viability, T/C (second compound 1 µM, first compound 0.316 µM): 94.1%
- viability, T/C (second compound 1 µM, first compound 1 µM): 92%
- viability, T/C (second compound 1 µM, first compound 3.16 µM): 99.3%
- viability, T/C (second compound 1 µM, first compound 10 µM): 2.82%
- viability, T/C (second compound 3.16 µM, first compound 0.0316 µM): 90.6%
- viability, T/C (second compound 3.16 µM, first compound 0.1 µM): 93.6%
- viability, T/C (second compound 3.16 µM, first compound 0.316 µM): 97.8%
- viability, T/C (second compound 3.16 µM, first compound 1 µM): 88.5%
- viability, T/C (second compound 3.16 µM, first compound 3.16 µM): 86.6%
- viability, T/C (second compound 3.16 µM, first compound 10 µM): 0.42%
- viability, T/C (second compound 10 µM, first compound 0.0316 µM): 95.7%
- viability, T/C (second compound 10 µM, first compound 0.1 µM): 103%
- viability, T/C (second compound 10 µM, first compound 0.316 µM): 81.9%
- viability, T/C (second compound 10 µM, first compound 1 µM): 91.3%
- viability, T/C (second compound 10 µM, first compound 3.16 µM): 95%
- viability, T/C (second compound 10 µM, first compound 10 µM): 1.21%

Compound: CCN1C(C(=O)NC23CCC(C(=O)O)(CC2)CC3)C(c2cccc(Cl)c2F)C2(C(=O)Nc3cc(Cl)ccc32)C12CCCCC2 (centres undefined) + Cc1c(S(C)(=O)=O)c(-c2cc(F)cc(N3CCN(c4ccc(NS(=O)(=O)c5ccc(NC(CCN6CCC(C(=O)OCCCP(=O)(O)O)CC6)CSc6ccccc6)c(S(=O)(=O)C(F)(F)F)c5)cc4)CC3)c2)c(-c2ccc(Cl)cc2)n1C(C)C
- IC50 (second compound 0.0316 µM): > 3 µM
- IC50 (second compound 0.1 µM): > 3 µM
- IC50 (second compound 0.316 µM): > 3 µM
- IC50 (second compound 1 µM): > 3 µM
- IC50 (second compound 3.16 µM): > 3 µM
- IC50 (second compound 10 µM): 2.74 µM
- viability, T/C (second compound 0.0316 µM, first compound 0.00949 µM): 97.3%
- viability, T/C (second compound 0.0316 µM, first compound 0.03 µM): 85.5%
- viability, T/C (second compound 0.0316 µM, first compound 0.0949 µM): 98.5%
- viability, T/C (second compound 0.0316 µM, first compound 0.3 µM): 107%
- viability, T/C (second compound 0.0316 µM, first compound 0.949 µM): 125%
- viability, T/C (second compound 0.0316 µM, first compound 3 µM): 106%
- viability, T/C (second compound 0.1 µM, first compound 0.00949 µM): 95%
- viability, T/C (second compound 0.1 µM, first compound 0.03 µM): 105%
- viability, T/C (second compound 0.1 µM, first compound 0.0949 µM): 99.5%
- viability, T/C (second compound 0.1 µM, first compound 0.3 µM): 105%
- viability, T/C (second compound 0.1 µM, first compound 0.949 µM): 124%
- viability, T/C (second compound 0.1 µM, first compound 3 µM): 98.2%
- viability, T/C (second compound 0.316 µM, first compound 0.00949 µM): 99%
- viability, T/C (second compound 0.316 µM, first compound 0.03 µM): 96.4%
- viability, T/C (second compound 0.316 µM, first compound 0.0949 µM): 107%
- viability, T/C (second compound 0.316 µM, first compound 0.3 µM): 96.1%
- viability, T/C (second compound 0.316 µM, first compound 0.949 µM): 116%
- viability, T/C (second compound 0.316 µM, first compound 3 µM): 81.2%
- viability, T/C (second compound 1 µM, first compound 0.00949 µM): 95.2%
- viability, T/C (second compound 1 µM, first compound 0.03 µM): 91.7%
- viability, T/C (second compound 1 µM, first compound 0.0949 µM): 104%
- viability, T/C (second compound 1 µM, first compound 0.3 µM): 108%
- viability, T/C (second compound 1 µM, first compound 0.949 µM): 121%
- viability, T/C (second compound 1 µM, first compound 3 µM): 60.4%
- viability, T/C (second compound 3.16 µM, first compound 0.00949 µM): 104%
- viability, T/C (second compound 3.16 µM, first compound 0.03 µM): 107%
- viability, T/C (second compound 3.16 µM, first compound 0.0949 µM): 96.6%
- viability, T/C (second compound 3.16 µM, first compound 0.3 µM): 107%
- viability, T/C (second compound 3.16 µM, first compound 0.949 µM): 110%
- viability, T/C (second compound 3.16 µM, first compound 3 µM): 50.7%
- viability, T/C (second compound 10 µM, first compound 0.00949 µM): 103%
- viability, T/C (second compound 10 µM, first compound 0.03 µM): 99.7%
- viability, T/C (second compound 10 µM, first compound 0.0949 µM): 94%
- viability, T/C (second compound 10 µM, first compound 0.3 µM): 107%
- viability, T/C (second compound 10 µM, first compound 0.949 µM): 115%
- viability, T/C (second compound 10 µM, first compound 3 µM): 45.3%
